Consider one compound from article PMC9640990 (Frontiers in Pharmacology, 2022).

The conditions of series [1]: human, in vivo, po.
For series [2] the following is noted: rat, in vivo, po, 0.72 g/kg.
Another series is described as follows: in vivo. To be noted: male, Sprague-Dawley, rat, po, 0.72 g/kg; for k el: plasma, k e.
The next series is described as follows: clinical. To be noted: male, human; for k el: plasma, k e, plasma PK-marker, human subjects.

Molecules are shown by their SMILES. Read-outs that look alike come from different tables or passages of the source.

Regarding `O=C(O)c1cc(O)c(O)c(O)c1` [GA, Gallic acid], the CL/F in series [1] is reported as 2.10 ± 0.64 L/h; in series [2], 2.06 ± 0.85 L/h. For the same compound, the “t 1/2” value in series [2] (male, Sprague-Dawley) amounted to 2.62 ± 1.78 h. Moreover, the AUC(0-t) in “in vivo” (in vivo, AUC 0-t) was 465 ± 171 ng·h/mL; in the series “clinical” (in vivo, po, AUC 0-t) it was 242 ± 70 ng·h/mL. Also, the AUC(0-inf) stood at 483 ± 169 ng·h/mL in the series “in vivo” (in vivo, AUC 0-∞) and 248 ± 67 ng·h/mL in the series “clinical” (in vivo, po, AUC 0-∞). Also, the Cmax in the series “in vivo” (in vivo, C max) was 134 ± 36.4 ng/mL; in “clinical” (in vivo, po, C max), 130 ± 32.7 ng/mL. Also, the Vd/F in “in vivo” (in vivo, V z/F) was 8.93 ± 9.83 L; in the series “clinical” (in vivo, po, V z/F), 322 ± 295 L. Also, the Tmax came to 1.5 h in “in vivo” (in vivo, t max, median (range), plasma PK-marker, rats, intragastric PCE 0.72 g/kg alone) and 0.88 h in the series “clinical” (in vivo, po). Further, the k el in “in vivo” (plasma PK-marker, rats, intragastric PCE 0.72 g/kg + CIP […]) was 0.000122 s⁻¹; in “in vivo” (plasma PK-marker, rats, intragastric PCE 0.72 g/kg alone) it was 9.72e-05 s⁻¹; in “clinical” (oral, multiple doses of PCE (8 g, TID, seven days) + CIP 0.5 g), 0.000117 s⁻¹; in the series “clinical” (oral, single dose of PCE (8 g) + CIP 0.5 g), 0.000131 s⁻¹; in “clinical” (po, oral single dose of PCE (8 g) alone), 0.000142 s⁻¹. Further, the half-life in “clinical” (in vivo, po, t 1/2) was 1.64 ± 0.92 h.

The CL/F is clearance divided by bioavailability, as obtained after extravascular dosing. As a reminder, the AUC(0-t) is the area under the concentration-time curve up to a stated or last time point. The AUC(0-inf) is total exposure, with the tail of the curve extrapolated. Read a low AUC(0-inf) as less exposure. One may read the Cmax as the maximum level reached in the sampled fluid or tissue. As usually defined, the Vd/F is the volume of distribution divided by bioavailability. As usually defined, the Tmax is the time at which the peak concentration occurs. As usually defined, the half-life is the time in which the quantity being followed falls by half. A high value points to slow loss.
